From ChEMBL document CHEMBL3885881, “DrugMatrix”

Species: Rattus norvegicus
Experiment: DrugMatrix - Regimen: Daily Repeat
Format: toxicity, organism-based, Sprague-Dawley
Parameters: regimen Daily Repeat, gender Male, age 6-8 weeks
Conditions: in vivo, po, route oral GAVAGE, vehicle .5 % CMC; for BASOPHIL / EOSINOPHIL / ERYTHROCYTE COUNT / HEMATOCRIT / HEMOGLOBIN / LEUKOCYTE COUNT / LYMPHOCYTE / MEAN CORPUSCULAR HEMOGLOBIN / MEAN CORPUSCULAR HEMOGLOBIN CONCENTRATION / MEAN CORPUSCULAR VOLUME / MONOCYTE / NEUTROPHIL / PLATELET COUNT: tissue Blood; for ALANINE AMINOTRANSFERASE / ALBUMIN / ALKALINE PHOSPHATASE / ASPARTATE AMINOTRANSFERASE / BLOOD UREA NITROGEN / CHLORIDE / CHOLESTEROL / CREATINE PHOSPHOKINASE / CREATININE / GLUCOSE / PHOSPHORUS / POTASSIUM / SODIUM / TOTAL BILIRUBIN / TOTAL PROTEIN: tissue Plasma
[1] = 0 mg/kg, 72 h, dose level Control, time 3 day
[2] = 0 mg/kg, 120 h, dose level Control, time 5 day
[3] = 69 mg/kg, 72 h, dose level High, time 3 day
[4] = 69 mg/kg, 120 h, dose level High, time 5 day
[5] = […], 72 h, dose 6.9 mg/Kg, dose level Low, time 3 day
[6] = […], 120 h, dose 6.9 mg/Kg, dose level Low, time 5 day

SMILES: C[C@]12C/C(=C/O)C(=O)C[C@@H]1CC[C@@H]1[C@@H]2CC[C@@]2(C)[C@H]1CC[C@]2(C)O [OXYMETHOLONE]
- BASOPHIL [1]: 0.68%
- EOSINOPHIL [1]: 0.46%
- ERYTHROCYTE COUNT [1]: 7.15 x10E6/uL
- HEMATOCRIT [1]: 45.44%
- HEMOGLOBIN [1]: 14.1 G/DL
- LEUKOCYTE COUNT [1]: 9.78 x10E3/uL
- LYMPHOCYTE [1]: 84.44%
- MEAN CORPUSCULAR HEMOGLOBIN [1]: 19.72 pg
- MEAN CORPUSCULAR HEMOGLOBIN CONCENTRATION [1]: 31 G/DL
- MEAN CORPUSCULAR VOLUME [1]: 63.66 fL
- MONOCYTE [1]: 2.14%
- NEUTROPHIL [1]: 11.16%
- PLATELET COUNT [1]: 1378.2 x10E3/uL
- ALANINE AMINOTRANSFERASE [1]: 42.33 u/L
- ALBUMIN [1]: 3.8 G/DL
- ALKALINE PHOSPHATASE [1]: 388.17 u/L
- ASPARTATE AMINOTRANSFERASE [1]: 68 u/L
- BLOOD UREA NITROGEN [1]: 16.17 mg/dL
- CHLORIDE [1]: 96.67 MEQ/L
- CHOLESTEROL [1]: 71 mg/dL
- CREATINE PHOSPHOKINASE [1]: 156.17 u/L
- CREATININE [1]: 0.57 mg/dL
- GLUCOSE [1]: 193.67 mg/dL
- PHOSPHORUS [1]: 11.43 mg/dL
- POTASSIUM [1]: 7 MEQ/L
- SODIUM [1]: 140.33 MEQ/L
- TOTAL BILIRUBIN [1]: 0.48 mg/dL
- TOTAL PROTEIN [1]: 6.8 G/DL
- BASOPHIL [2]: 1.47%
- EOSINOPHIL [2]: 1%
- ERYTHROCYTE COUNT [2]: 7.12 x10E6/uL
- HEMATOCRIT [2]: 45.47%
- HEMOGLOBIN [2]: 14.1 G/DL
- LEUKOCYTE COUNT [2]: 11.38 x10E3/uL
- LYMPHOCYTE [2]: 82.57%
- MEAN CORPUSCULAR HEMOGLOBIN [2]: 19.82 pg
- MEAN CORPUSCULAR HEMOGLOBIN CONCENTRATION [2]: 31.02 G/DL
- MEAN CORPUSCULAR VOLUME [2]: 63.88 fL
- MONOCYTE [2]: 2.2%
- NEUTROPHIL [2]: 11.97%
- PLATELET COUNT [2]: 1267 x10E3/uL
- ALANINE AMINOTRANSFERASE [2]: 38 u/L
- ALBUMIN [2]: 3.72 G/DL
- ALKALINE PHOSPHATASE [2]: 391 u/L
- ASPARTATE AMINOTRANSFERASE [2]: 65.83 u/L
- BLOOD UREA NITROGEN [2]: 14.17 mg/dL
- CHLORIDE [2]: 107.67 MEQ/L
- CHOLESTEROL [2]: 61 mg/dL
- CREATINE PHOSPHOKINASE [2]: 148.33 u/L
- CREATININE [2]: 0.57 mg/dL
- GLUCOSE [2]: 177.17 mg/dL
- PHOSPHORUS [2]: 12.07 mg/dL
- POTASSIUM [2]: 7.2 MEQ/L
- SODIUM [2]: 151.5 MEQ/L
- TOTAL BILIRUBIN [2]: 0.58 mg/dL
- TOTAL PROTEIN [2]: 6.72 G/DL

SMILES: COc1ccc(Cc2nccc3cc(OC)c(OC)cc23)cc1OC [PAPAVERINE]
- BASOPHIL [3]: 0%
- EOSINOPHIL [3]: 0.33%
- ERYTHROCYTE COUNT [3]: 6.13 x10E6/uL
- HEMATOCRIT [3]: 36.97%
- HEMOGLOBIN [3]: 14.43 G/DL
- LEUKOCYTE COUNT [3]: 10.73 x10E3/uL
- LYMPHOCYTE [3]: 85%
- MEAN CORPUSCULAR HEMOGLOBIN [3]: 23.67 pg
- MEAN CORPUSCULAR HEMOGLOBIN CONCENTRATION [3]: 39.07 G/DL
- MEAN CORPUSCULAR VOLUME [3]: 60.5 fL
- MONOCYTE [3]: 1%
- NEUTROPHIL [3]: 13.67%
- PLATELET COUNT [3]: 1169 x10E3/uL
- ALANINE AMINOTRANSFERASE [3]: 36.33 u/L
- ALBUMIN [3]: 3.83 G/DL
- ALKALINE PHOSPHATASE [3]: 289.67 u/L
- ASPARTATE AMINOTRANSFERASE [3]: 57.33 u/L
- BLOOD UREA NITROGEN [3]: 13.67 mg/dL
- CHLORIDE [3]: 107.67 MEQ/L
- CHOLESTEROL [3]: 66.33 mg/dL
- CREATINE PHOSPHOKINASE [3]: 129.67 u/L
- CREATININE [3]: 0.5 mg/dL
- GLUCOSE [3]: 195.67 mg/dL
- PHOSPHORUS [3]: 11.97 mg/dL
- POTASSIUM [3]: 6.9 MEQ/L
- SODIUM [3]: 152.33 MEQ/L
- TOTAL BILIRUBIN [3]: 0.3 mg/dL
- TOTAL PROTEIN [3]: 6.13 G/DL
- BASOPHIL [4]: 0%
- EOSINOPHIL [4]: 0%
- ERYTHROCYTE COUNT [4]: 5.8 x10E6/uL
- HEMATOCRIT [4]: 35.07%
- HEMOGLOBIN [4]: 14.43 G/DL
- LEUKOCYTE COUNT [4]: 15.23 x10E3/uL
- LYMPHOCYTE [4]: 84.33%
- MEAN CORPUSCULAR HEMOGLOBIN [4]: 24.97 pg
- MEAN CORPUSCULAR HEMOGLOBIN CONCENTRATION [4]: 41.27 G/DL
- MEAN CORPUSCULAR VOLUME [4]: 60.43 fL
- MONOCYTE [4]: 3.67%
- NEUTROPHIL [4]: 12%
- PLATELET COUNT [4]: 973 x10E3/uL
- ALANINE AMINOTRANSFERASE [4]: 34 u/L
- ALBUMIN [4]: 3.67 G/DL
- ALKALINE PHOSPHATASE [4]: 334 u/L
- ASPARTATE AMINOTRANSFERASE [4]: 56.33 u/L
- BLOOD UREA NITROGEN [4]: 12.33 mg/dL
- CHLORIDE [4]: 105.33 MEQ/L
- CHOLESTEROL [4]: 57.67 mg/dL
- CREATINE PHOSPHOKINASE [4]: 142.67 u/L
- CREATININE [4]: 0.57 mg/dL
- GLUCOSE [4]: 174.33 mg/dL
- PHOSPHORUS [4]: 11.33 mg/dL
- POTASSIUM [4]: 7 MEQ/L
- SODIUM [4]: 149.67 MEQ/L
- TOTAL BILIRUBIN [4]: 0.43 mg/dL
- TOTAL PROTEIN [4]: 5.8 G/DL
- BASOPHIL [5]: 0%
- EOSINOPHIL [5]: 0.33%
- ERYTHROCYTE COUNT [5]: 5.94 x10E6/uL
- HEMATOCRIT [5]: 35.17%
- HEMOGLOBIN [5]: 14.13 G/DL
- LEUKOCYTE COUNT [5]: 12.43 x10E3/uL
- LYMPHOCYTE [5]: 87.33%
- MEAN CORPUSCULAR HEMOGLOBIN [5]: 23.8 pg
- MEAN CORPUSCULAR HEMOGLOBIN CONCENTRATION [5]: 40.2 G/DL
- MEAN CORPUSCULAR VOLUME [5]: 59.13 fL
- MONOCYTE [5]: 2.33%
- NEUTROPHIL [5]: 10%
- PLATELET COUNT [5]: 1083 x10E3/uL
- ALANINE AMINOTRANSFERASE [5]: 43.67 u/L
- ALBUMIN [5]: 3.7 G/DL
- ALKALINE PHOSPHATASE [5]: 347.67 u/L
- ASPARTATE AMINOTRANSFERASE [5]: 64.67 u/L
- BLOOD UREA NITROGEN [5]: 11.67 mg/dL
- CHLORIDE [5]: 107 MEQ/L
- CHOLESTEROL [5]: 64.33 mg/dL
- CREATINE PHOSPHOKINASE [5]: 170 u/L
- CREATININE [5]: 0.5 mg/dL
- GLUCOSE [5]: 172 mg/dL
- PHOSPHORUS [5]: 11.1 mg/dL
- POTASSIUM [5]: 6.23 MEQ/L
- SODIUM [5]: 149 MEQ/L
- TOTAL BILIRUBIN [5]: 0.37 mg/dL
- TOTAL PROTEIN [5]: 5.77 G/DL
- BASOPHIL [6]: 0%
- EOSINOPHIL [6]: 0.33%
- ERYTHROCYTE COUNT [6]: 6.2 x10E6/uL
- HEMATOCRIT [6]: 37.4%
- HEMOGLOBIN [6]: 15.4 G/DL
- LEUKOCYTE COUNT [6]: 12.83 x10E3/uL
- LYMPHOCYTE [6]: 87.33%
- MEAN CORPUSCULAR HEMOGLOBIN [6]: 24.87 pg
- MEAN CORPUSCULAR HEMOGLOBIN CONCENTRATION [6]: 41.17 G/DL
- MEAN CORPUSCULAR VOLUME [6]: 60.33 fL
- MONOCYTE [6]: 1.33%
- NEUTROPHIL [6]: 11%
- PLATELET COUNT [6]: 1006 x10E3/uL
- ALANINE AMINOTRANSFERASE [6]: 35 u/L
- ALBUMIN [6]: 3.73 G/DL
- ALKALINE PHOSPHATASE [6]: 374.33 u/L
- ASPARTATE AMINOTRANSFERASE [6]: 60.33 u/L
- BLOOD UREA NITROGEN [6]: 12.33 mg/dL
- CHLORIDE [6]: 108.33 MEQ/L
- CHOLESTEROL [6]: 61.33 mg/dL
- CREATINE PHOSPHOKINASE [6]: 131.67 u/L
- CREATININE [6]: 0.6 mg/dL
- GLUCOSE [6]: 168.67 mg/dL
- PHOSPHORUS [6]: 10.03 mg/dL
- POTASSIUM [6]: 6.13 MEQ/L
- SODIUM [6]: 153.67 MEQ/L
- TOTAL BILIRUBIN [6]: 0.33 mg/dL
- TOTAL PROTEIN [6]: 5.97 G/DL
